{"source": "patent US20130108653A1", "about": "“BIVALENT MOLECULES FOR HIV ENTRY INHIBITION” (priority 2009, published 2013)", "tested_on": "JRCSF (CCR5-tropic)", "assay": "Luciferase assay / single round infection in TZM-bl cells, JRCSF", "type": "cell-based, HIV", "conditions": "TZM-bl luciferase indicator cells; FIG. 20", "source_text": "FIGS. 10-14. Inhibitory effect of the bivalent molecules of the present invention on HIV spreading. The experiment is based on the activation of the luciferase gene upon infection of TZM-bl cells. X-axis depict 3 different dilutions of a virus stock (HXB2 (CRCX4-trop, virus 89.6 (Dual-trop) or JRCSF (CCR5-trop)) with unknown titer (1×, 5× and 25×). Y-axis depicts the amount of luminescence. Lower luminescence corresponds to greater inhibitory effect of the bivalent molecules of the present invention. (See also Example 4 elsewhere herein).\nJRCSF is incubated in the presence of mol 500 in a concentration of 0.2 micrograms/ml and 0.1 micrograms/ml. JRCSF incubated without mol 500 is shown as a control. […]\nThe experiment is based on the activation of the luciferase gene upon infection of TZM-bl cells with 3 different virus strains (HXB2 (CRCX4-tropic), virus 89.6 (Dual-tropic) or JRCSF (CCR5-tropic)). The more luminescence measured, the greater activation of the luciferase gene has occurred, and the more inefficient the inhibition of infection has been by the molecule of the present invention […]\n90 μl of Luciferin (britelite plus Perkin Elmer cat no: 6016761) is added to each well in order to start the chemo-luminescence reaction.\n150 μl of the liquid is removed from each well and the luminescence is measured in a FLUO star Omega (BMG LABYECH Gmbh). […]"}
{"substance": "enfuvirtide", "values": [{"measurement": "neutralization of JR-CSF, single round infection, in words", "value": "very minor effects"}]}
